According to ChEMBL document CHEMBL3507680, “University of Dundee, Gates Library screen for HepG2 cell viability”:

test: Human HepG2 cell viability assay in 384 well format; type: toxicity, cell-based; set-up: dose 125 nL, time 70.5 hour; cytotoxicity at 70.5 h: concentration not given beside the values; settings: HepG2 cells, read-out: Inhibition

First: Cc1cnc(C(=O)N2C[C@H]3CC[C@@H]2CN(S(=O)(=O)N(C)C)C3)cn1
Second: Cc1nccnc1N1C[C@H]2CN(C3CCOCC3)C[C@@]2(C(=O)O)C1
The cytotoxicity at 70.5 h of the first is lower: -7.71% for the first, 2.61% for the second.

First: Cn1cc(CNCC2Cn3nnc(-c4ccccc4)c3CO2)cn1 (centres undefined)
Second: Cc1cnn(CCCNCc2csc(COc3ccccc3)n2)c1
The cytotoxicity at 70.5 h of the first is lower: -16.3% for the first, -3.68% for the second.

First: N#Cc1ccc(S(=O)(=O)N2CC(CC(=O)O)c3ccccc32)cc1 (centres undefined)
Second: N#Cc1cc(N2CCC(CS(N)(=O)=O)CC2)c2ccccc2n1
The cytotoxicity at 70.5 h of the first is lower: -3.42% for the first, 14.9% for the second.

Going from `CN1CCCC2(CC1)CCN(C(=O)CCc1ccccc1F)CC2` to `O=C(c1nc(=O)[nH]c2ccccc12)N1CCCC2(CCNC2)C1` (centres undefined), the cytotoxicity at 70.5 h rises from -6.92% to 8.43%.

Going from `Cc1c[nH]c(CN(C)C(=O)C2CC(=O)N(Cc3ccncc3)C2)n1` (centres undefined) to `CN(C)c1cc(CNC(=O)c2n[nH]c(=O)c3ccccc23)ccn1`, the cytotoxicity at 70.5 h rises from 11.9% to 12.8%.

Going from `CCN(Cc1cccc2c1OCO2)CC1CCCO1` (centres undefined) to `Cc1cnccc1CN1Cc2ccccc2O[C@]2(CC[C@H](CO)CC2)C1`, the cytotoxicity at 70.5 h rises from -6.33% to 15.1%.

First: CN(C)c1ccc(NC(=O)c2cccc(N(C)C)c2)nc1
Second: CCN(Cc1cccc(C(=O)Nc2cn(C)nn2)c1)[C@H]1COC[C@@H]1O
The cytotoxicity at 70.5 h of the first is higher: 15.4% for the first, -5.22% for the second.

Compared with `CCN(Cc1cccc(F)c1)Cc1nc2c(cnn2C)c(=O)[nH]1`, `CC(=O)NCCNC(=O)NCCCc1cccc(F)c1` is lower in cytotoxicity at 70.5 h: 14.7% for the first, -5.39% for the second.

First: Cc1ccccc1C(C(=O)N(C)Cc1cnn(C)c1)N(C)C (centres undefined)
Second: COc1ccccc1C(O)CNC(=O)Nc1ncccc1C (centres undefined)
The cytotoxicity at 70.5 h of the first is lower: -1.08% for the first, 7.49% for the second.

First: N[C@H]1CN(C(=O)Cc2ccc(CO)cc2)C[C@@H]1C1CC1
Second: CO[C@H]1CC[C@H]2[C@H]1OCCN2Cc1ccc(F)c(F)c1
The cytotoxicity at 70.5 h of the first is lower: 34.3% for the first, 36.7% for the second.

Going from `O=C(NCC1CCS(=O)(=O)C1)c1ccc2cccc(Cl)c2n1` (centres undefined) to `O=C(Cc1csc(-c2ccccc2Cl)n1)NCc1cccc(C(=O)O)c1`, the cytotoxicity at 70.5 h falls from -5.5% to -18.1%.

Going from `CC(NC(=O)Cc1ccon1)c1ccc(OCC2CC2)c(F)c1` (centres undefined) to `CS(=O)(=O)CCOCCNc1ccc2ccc(F)cc2n1`, the cytotoxicity at 70.5 h rises from -7.52% to -3.21%.

First: CN1CCN(C)c2cc(NC(=O)c3cc[nH]n3)ccc2C1
Second: CN1CCN(S(=O)(=O)c2cccnc2)c2cnccc21
The cytotoxicity at 70.5 h of the first is higher: 6.77% for the first, -3.64% for the second.

First: O=C(Nc1ccccc1)N1C[C@H]2C[C@H](C(=O)N3CCCC3)[C@@H](C1)O2
Second: O=C(CN1CCCC1)N1CCCC(CNS(=O)(=O)Cc2ccccc2)C1 (centres undefined)
The cytotoxicity at 70.5 h of the first is lower: 15.5% for the first, 22.2% for the second.

Compared with `Cc1nccn1C1CCCN(C(=O)Cn2ccc(=O)n(C)c2=O)C1` (centres undefined), `Cc1ccc(C#N)c(N2CCCC(c3nccn3Cc3cscn3)C2)n1` (centres undefined) is higher in cytotoxicity at 70.5 h: -14.6% for the first, -3.22% for the second.

Going from `COc1ccccc1CN1C(=O)O[C@@H]2CN(c3nc(C)cnc3C)C[C@@H]21` to `CC1(C)CCN(Cc2ccccc2-c2nc(C(C)(C)C)cc(=O)[nH]2)C1`, the cytotoxicity at 70.5 h falls from -3.32% to -4.72%.

First: CCC(CCN)n1ccc(C(F)(F)F)n1 (centres undefined)
Second: O=C1NCCCCC1NC(=O)C1(c2cccc(C(F)(F)F)c2)CC1 (centres undefined)
The cytotoxicity at 70.5 h of the first is higher: 4.74% for the first, 0.452% for the second.

First: CCN(C)Cc1n[nH]c(=O)n1-c1ccc(C)c(C)c1
Second: Cc1nn(C)c(N2CCOCC2)c1CNC1CCc2ccccc21 (centres undefined)
The cytotoxicity at 70.5 h of the first is lower: -11.7% for the first, -7.04% for the second.

First: CC(Cn1cccn1)NS(=O)(=O)Cc1ccccc1 (centres undefined)
Second: NC(CNS(=O)(=O)Cc1cccc2cccnc12)c1ccccc1 (centres undefined)
The cytotoxicity at 70.5 h of the first is lower: 24.2% for the first, 28.4% for the second.

Compared with `CC(C)CC(=O)N1CCC(Nc2nc(O)cc(-c3ccsc3)n2)CC1`, `Cc1noc(C2CCN(C(=O)C3CCCO3)CC2)n1` (centres undefined) is lower in cytotoxicity at 70.5 h: 11.2% for the first, -9.25% for the second.

Going from `CN(C)C(=O)C1OC2(CCNCC2)c2ccccc21` (centres undefined) to `COCC(=O)N1CCC2(CC1)CC(OC)CO2` (centres undefined), the cytotoxicity at 70.5 h falls from -6.23% to -7.5%.

First: Cc1cnn(CC2CCCCN2Cc2nnc(C3CC3)n2C)c1 (centres undefined)
Second: Fc1ccc(NCc2ncc[nH]2)cc1Br
The cytotoxicity at 70.5 h of the first is higher: -6.92% for the first, -7.28% for the second.
